The subject of assay [1] is PTHR1. The assay is described as follows: β-arr1 | pEC50.
For assay [2], the system named is PTHR1. The assay is described as follows: cAMP | pEC50. An excerpt:
Table printed on a drawing sheet, FIG. 2
Head of the field: cAMP | pEC50
First copying reader's note: The error (±) stands inside the result cells.

Assay [3] concerns PTHR1. Kind of assay: β-arr2 | pEC50.
The next assay deals with PTHR1 and PTHR2. Kind of assay: Tolerance pattern of β residues for PTHR1 and PTHR2 activation. The class given is cell-based. On the set-up: key: “*” denotes potent PTHR1-selective agonism; “#” denotes potent PTHR2-selective agonism; “*#” denotes potent agonism of both PTHR1 and PTHR2. To be noted: PTHR1 vs PTHR2 agonism. An excerpt: Enhanced selectivity via double α→β replacement.

Assay [4] has as its target T1, PTHR2 (Homo sapiens, UniProt P49190). The assay is described as follows: PTHR2 activation, cAMP production (GloSensor) in HEK293 cells. To be noted: for PTHR2 Activation: Derivative EC50/PTH EC50: normalized to EC50 of PTH(1-34)-NH2 ([…] printed), cAMP production. The class given is cell-based. The arrangement: expressed in transfected cells; key to PTHR2 Activation: Derivative EC50/PTH EC50: *** denotes poor tolerance of β amino acid for PTHR2 activation. In short, it runs like this:
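HEK293 cells stably expressing PTHR2; receptor activation read as cAMP production by GloSensor luminescence. Dose-response curves fit with a four-parameter sigmoidal equation; data are mean±s.e.m. of four independent measurements.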
(Changes in cAMP serve as a functional read-out for many G protein-coupled receptors.)

Assay [5] has as its target T2, PTHR1 (Homo sapiens, UniProt Q03431).
T2 sequence (Q03431 27-593): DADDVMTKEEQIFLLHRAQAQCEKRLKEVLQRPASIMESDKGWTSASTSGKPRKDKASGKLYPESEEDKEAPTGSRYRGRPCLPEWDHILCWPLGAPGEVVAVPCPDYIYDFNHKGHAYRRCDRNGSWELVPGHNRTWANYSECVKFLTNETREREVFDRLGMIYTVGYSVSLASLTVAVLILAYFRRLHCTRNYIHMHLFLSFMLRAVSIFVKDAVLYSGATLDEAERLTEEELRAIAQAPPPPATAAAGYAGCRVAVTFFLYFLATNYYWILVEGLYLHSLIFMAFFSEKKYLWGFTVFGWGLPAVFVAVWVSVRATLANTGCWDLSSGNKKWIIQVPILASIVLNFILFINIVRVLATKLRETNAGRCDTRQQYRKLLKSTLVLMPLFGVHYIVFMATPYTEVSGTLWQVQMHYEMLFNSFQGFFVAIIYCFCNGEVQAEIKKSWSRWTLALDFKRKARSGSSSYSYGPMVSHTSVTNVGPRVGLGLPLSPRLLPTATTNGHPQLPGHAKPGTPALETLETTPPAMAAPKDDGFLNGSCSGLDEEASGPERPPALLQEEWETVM
The assay is described as follows: PTHR1 activation, cAMP production (GloSensor) in HEK293 cells. On the set-up: expressed in transfected cells. The assay is classed as cell-based. As to conditions: for PTHR1 Activation: Derivative EC50/PTH EC50: normalized to EC50 of PTH(1-34)-NH2 ([…]), cAMP production.

Assay [6] deals with T2, PTHR1. Kind of assay: Wash-out assay, duration of PTHR1 activation. The assay is classed as cell-based. The arrangement: expressed in transfected cells; host or cells: cells stably expressing PTHR1. An excerpt: (§1) Duration of activation for PTHR1 and PTHR2. To assess the duration of PTHR1 and PTHR2 activation induced by α/β-peptides 14 and 15, the time course of cAMP production by each receptor was examined after stimulation with an agonist and subsequent washing of the cells to remove unbound peptide (wash-out assay). […] During the initial “ligand-on” phase, cells stably expressing PTHR1 or PTHR2 were stimulated with an agonist concentration corresponding to ˜EC80; the medium contained D-luciferin. […] After the addition of fresh medium containing D-luciferin, the luminescence decay is measured. The area under the “ligand-off” curve (AUC) reflects the duration of signaling, which may be related to residence time of the agonist on the receptor but could have other origins at the molecular level.

Assay [7] addresses T1, PTHR2. The assay is described as follows: Wash-out assay, duration of PTHR2 activation. The class given is cell-based. On the set-up: expressed in transfected cells; host or cells: cells stably expressing PTHR2.
From the text: as §1

Setting [8] is: HEK-293 cells, GloSensor cAMP, read-out: EC50 (nM) of PTHR2 Activation.
The mark [9] stands for this setting: HEK-293 cells, GloSensor cAMP, read-out: EC50 (nM) of PTHR1 Activation.
[10] abbreviates: read-out: Normalized ligand-on Emax.

The term EC50 denotes the concentration at which the effect is half-maximal. By Emax is commonly meant the greatest response seen or fitted, relative to the assay's reference.

Where two headings read alike, the source gives them in different places. Starred links: 1 amine or outer side, 2 acyl side, 3 side chain; linkers in the order of their positions; H or OH if unused. Non-standard residues stand in square brackets, D forms with d. Residues, ends and D or L forms follow the SMILES beside them. X2 = CCCC[C@@H](CN[*:1])C(=O)[*:2]; X1 = CCCC[C@H](CN[*:1])C(=O)[*:2] Where only a bound is given, the exact number is not on record here.

T1 sequence (P49190 25-550): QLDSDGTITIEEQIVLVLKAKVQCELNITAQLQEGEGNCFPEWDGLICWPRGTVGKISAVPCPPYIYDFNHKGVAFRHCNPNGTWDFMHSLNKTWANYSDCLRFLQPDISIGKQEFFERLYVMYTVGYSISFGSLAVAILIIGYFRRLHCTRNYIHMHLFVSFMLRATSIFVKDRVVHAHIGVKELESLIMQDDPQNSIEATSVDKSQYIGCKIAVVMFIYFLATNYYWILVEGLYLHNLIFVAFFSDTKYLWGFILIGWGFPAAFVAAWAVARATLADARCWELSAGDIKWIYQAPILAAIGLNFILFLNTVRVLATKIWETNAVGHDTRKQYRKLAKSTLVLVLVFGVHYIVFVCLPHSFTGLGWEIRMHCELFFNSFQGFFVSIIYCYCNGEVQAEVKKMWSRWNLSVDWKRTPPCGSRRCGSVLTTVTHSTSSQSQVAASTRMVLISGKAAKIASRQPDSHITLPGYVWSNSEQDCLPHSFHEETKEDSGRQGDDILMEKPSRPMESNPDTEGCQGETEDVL

For the compound “LA-PTH: long-acting PTH analog (AVAEIQLMHQRAKWIQDARRRAFLHKLIAEIHTAEI; Long-acting (LA)-PTH, a parathyroid hormone analog)”, the “β-arr1 | pEC50” value with PTHR1 [1] is recorded as 8.16 ± 0.06. For the same compound, in the assay with PTHR1 [2], the “cAMP | pEC50” value is given as 9.06 ± 0.06. Also, the “β-arr2 | pEC50” value in the assay with PTHR1 [3] stood at 8.20 ± 0.06.
For `CCCC[C@H](CNC(=O)[C@H](CC(C)C)NC(=O)[C@H](CCC(N)=O)NC(=O)[C@@H](NC(=O)[C@H](CCC(=O)O)NC(=O)[C@H](CO)NC(=O)[C@@H](NC(=O)[C@@H](N)CO)C(C)C)[C@@H](C)CC)C(=O)N[C@@H](Cc1c[nH]cn1)C(=O)N[C@@H](CC(N)=O)C(=O)N[C@@H](CC(C)C)C(=O)NCC(=O)N[C@@H](CCCCN)C(=O)N[C@@H](Cc1c[nH]cn1)C(=O)N[C@@H](CC(C)C)C(=O)N[C@@H](CC(N)=O)C(=O)N[C@@H](CO)C(=O)N[C@@H](CCSC)C(=O)N[C@@H](CCC(=O)O)C(=O)N[C@@H](CCCNC(=N)N)C(=O)N[C@H](C(=O)N[C@@H](CCC(=O)O)C(=O)N[C@@H](Cc1c[nH]c2ccccc12)C(=O)N[C@@H](CC(C)C)C(=O)N[C@@H](CCCNC(=N)N)C(=O)N[C@@H](CCCCN)C(=O)N[C@@H](CCCCN)C(=O)N[C@@H](CC(C)C)C(=O)N[C@@H](CCC(N)=O)C(=O)N[C@@H](CC(=O)O)C(=O)N[C@H](C(=O)N[C@@H](Cc1c[nH]cn1)C(=O)N[C@@H](CC(N)=O)C(=O)N[C@@H](Cc1ccccc1)C(N)=O)C(C)C)C(C)C` [SEQ. ID. NO: 29] (H-SVSEIQL[X1]HNLGKHLNSMERVEWLRKKLQDVHNF-NH2; N-terminus assumed), the “Tolerance Pattern of β AA” value in the assay with PTHR1 and PTHR2 is listed as “*”. For the same compound, the values for the concentration for a half-maximal effect (EC50) on PTHR2 [4] (setting [8]) and on PTHR1 [5] (setting [9]) were greater than 1000 nM and 0.4 ± 0.07 nM, respectively. The “PTHR2 Activation: Derivative EC50/PTH EC50” value on PTHR2 [4] is listed as “***”. The “PTHR1 Activation: Derivative EC50/PTH EC50” value at PTHR1 [5] is listed as 1.05.
For the compound `CC[C@H](C)[C@H](NC(=O)[C@H](CCC(=O)O)NC(=O)[C@H](CO)NC(=O)[C@@H](NC(=O)[C@@H](N)CO)C(C)C)C(=O)N[C@@H](CCC(N)=O)C(=O)N[C@@H](CC(C)C)C(=O)N[C@@H](CCSC)C(=O)N[C@@H](Cc1c[nH]cn1)C(=O)N[C@@H](CC(N)=O)C(=O)N[C@@H](CC(C)C)C(=O)NCC(=O)N[C@@H](CCCCN)C(=O)N[C@@H](Cc1c[nH]cn1)C(=O)N[C@@H](CC(C)C)C(=O)N[C@@H](CC(N)=O)C(=O)N[C@@H](CO)C(=O)N[C@@H](CCSC)C(=O)N[C@@H](CCC(=O)O)C(=O)N[C@@H](CCCNC(=N)N)C(=O)N[C@H](C(=O)N[C@@H](CCC(=O)O)C(=O)N[C@@H](Cc1c[nH]c2ccccc12)C(=O)N[C@@H](CC(C)C)C(=O)N[C@@H](CCCNC(=N)N)C(=O)N[C@@H](CCCCN)C(=O)N[C@@H](CCCCN)C(=O)N[C@@H](CC(C)C)C(=O)N[C@@H](CCC(N)=O)C(=O)N[C@@H](CC(=O)O)C(=O)N[C@H](C(=O)N[C@@H](Cc1c[nH]cn1)C(=O)N[C@@H](CC(N)=O)C(=O)N[C@@H](Cc1ccccc1)C(N)=O)C(C)C)C(C)C` [PTH(1-34)-NH2, reference compound], the Emax at PTHR2 [4] (HEK293), at PTHR1 [6] (setting [10]), on PTHR1 [5] (HEK293) and at PTHR2 [7] (setting [10]) was 100% each time. Also, the half-maximal effective concentration (EC50) on PTHR2 [4] (setting [8]) stood at 0.97 nM; on PTHR2 [4] (Table 5, HEK293 cells stably expressing PTHR2, read-out: PTHR2 EC50), 1.07 ± 0.14 nM. For the same compound, the “Normalized ligand-off AUC” value on PTHR1 [6] (PTHR1, after washout, PTH(1-34)-NH2 = 100) amounted to 100; at PTHR2 [7] (PTHR2, after washout, PTH(1-34)-NH2 = 100), 100.
On to BA058: also known as abaloparatide, for which, in the assay with PTHR1 [1], the “β-arr1 | pEC50” value amounted to 8.38 ± 0.12. Besides, in the assay with PTHR1 [2], the “cAMP | pEC50” value was determined as 10.05 ± 0.05. Moreover, the “β-arr2 | pEC50” value in the assay on PTHR1 [3] amounted to 8.52 ± 0.06.
Turning to `CCCC[C@@H](CNC(=O)[C@H](CC(C)C)NC(=O)[C@H](CCC(N)=O)NC(=O)[C@@H](NC(=O)[C@H](CCC(=O)O)NC(=O)[C@H](CO)NC(=O)[C@@H](NC(=O)[C@@H](N)CO)C(C)C)[C@@H](C)CC)C(=O)N[C@@H](Cc1c[nH]cn1)C(=O)N[C@@H](CC(N)=O)C(=O)N[C@@H](CC(C)C)C(=O)NCC(=O)N[C@@H](CCCCN)C(=O)N[C@@H](Cc1c[nH]cn1)C(=O)N[C@@H](CC(C)C)C(=O)N[C@@H](CC(N)=O)C(=O)N[C@@H](CO)C(=O)N[C@@H](CCSC)C(=O)N[C@@H](CCC(=O)O)C(=O)N[C@@H](CCCNC(=N)N)C(=O)N[C@H](C(=O)N[C@@H](CCC(=O)O)C(=O)N[C@@H](Cc1c[nH]c2ccccc12)C(=O)N[C@@H](CC(C)C)C(=O)N[C@@H](CCCNC(=N)N)C(=O)N[C@@H](CCCCN)C(=O)N[C@@H](CCCCN)C(=O)N[C@@H](CC(C)C)C(=O)N[C@@H](CCC(N)=O)C(=O)N[C@@H](CC(=O)O)C(=O)N[C@H](C(=O)N[C@@H](Cc1c[nH]cn1)C(=O)N[C@@H](CC(N)=O)C(=O)N[C@@H](Cc1ccccc1)C(N)=O)C(C)C)C(C)C` [SEQ. ID. NO: 37] (H-SVSEIQL[X2]HNLGKHLNSMERVEWLRKKLQDVHNF-NH2; N-terminus assumed), the “Tolerance Pattern of β AA” value with PTHR1 and PTHR2 is reported as “*”. For the same compound, the EC50 was 10.3 ± 1.65 nM on PTHR2 [4] (setting [8]); 0.38 ± 0.07 nM at PTHR1 [5] (setting [9]); 10.3 ± 1.65 nM on PTHR1 [5] (Table 8, hPTHR1, read-out: PTHR1 EC50). Besides, the “PTHR2 Activation: Derivative EC50/PTH EC50” value at PTHR2 [4] stood at 11.85. The “PTHR1 Activation: Derivative EC50/PTH EC50” value on PTHR1 [5] amounted to 1.00.
For `CC[C@H](C)[C@H](NC(=O)[C@H](CCC(=O)O)NC(=O)[C@H](CO)NC(=O)[C@@H](NC(=O)[C@@H](N)CO)C(C)C)C(=O)N[C@@H](CCC(N)=O)C(=O)NC[C@@H](CC(C)C)C(=O)N[C@@H](CCSC)C(=O)N[C@@H](Cc1c[nH]cn1)C(=O)N[C@@H](CC(N)=O)C(=O)N[C@@H](CC(C)C)C(=O)NCC(=O)N[C@@H](CCCCN)C(=O)N[C@@H](Cc1c[nH]cn1)C(=O)N[C@@H](CC(C)C)C(=O)N[C@@H](CC(N)=O)C(=O)N[C@@H](CO)C(=O)N[C@@H](CCSC)C(=O)N[C@@H](CCC(=O)O)C(=O)N[C@@H](CCCNC(=N)N)C(=O)N[C@H](C(=O)N[C@@H](CCC(=O)O)C(=O)N[C@@H](Cc1c[nH]c2ccccc12)C(=O)N[C@@H](CC(C)C)C(=O)N[C@@H](CCCNC(=N)N)C(=O)N[C@@H](CCCCN)C(=O)N[C@@H](CCCCN)C(=O)N[C@@H](CC(C)C)C(=O)N[C@@H](CCC(N)=O)C(=O)N[C@@H](CC(=O)O)C(=O)N[C@H](C(=O)N[C@@H](Cc1c[nH]cn1)C(=O)N[C@@H](CC(N)=O)C(=O)N[C@@H](Cc1ccccc1)C(N)=O)C(C)C)C(C)C` [SEQ. ID. NO: 28], the “Tolerance Pattern of β AA” value in the assay on PTHR1 and PTHR2 is given as “*”. Further, the 50% effective concentration (EC50) at PTHR2 [4] (setting [8]) was found to be 41.4 ± 5.18 nM; at PTHR1 [5] (setting [9]) it was 0.36 ± 0.11 nM. Also, the “PTHR2 Activation: Derivative EC50/PTH EC50” value on PTHR2 [4] came out at 47.64. The “PTHR1 Activation: Derivative EC50/PTH EC50” value on PTHR1 [5] came out at 0.95.

These data come from patent publication US11780901B2, “Analogues of parathyroid hormone (1-34) that function as agonists of the parathyroid hormone receptor-1 and display modified activity profiles” (Wisconsin Alumni Research Foundation, priority 2013, dated 2023).
